Test [1] addresses T1, DLD (dihydrolipoamide dehydrogenase) (Homo sapiens, UniProt P09622).
T1 construct: recombinant, customized by DetaiBio; His-tag labelling (RED-tris-NTA) for MST implies His tag
T1 sequence (P09622 36-509): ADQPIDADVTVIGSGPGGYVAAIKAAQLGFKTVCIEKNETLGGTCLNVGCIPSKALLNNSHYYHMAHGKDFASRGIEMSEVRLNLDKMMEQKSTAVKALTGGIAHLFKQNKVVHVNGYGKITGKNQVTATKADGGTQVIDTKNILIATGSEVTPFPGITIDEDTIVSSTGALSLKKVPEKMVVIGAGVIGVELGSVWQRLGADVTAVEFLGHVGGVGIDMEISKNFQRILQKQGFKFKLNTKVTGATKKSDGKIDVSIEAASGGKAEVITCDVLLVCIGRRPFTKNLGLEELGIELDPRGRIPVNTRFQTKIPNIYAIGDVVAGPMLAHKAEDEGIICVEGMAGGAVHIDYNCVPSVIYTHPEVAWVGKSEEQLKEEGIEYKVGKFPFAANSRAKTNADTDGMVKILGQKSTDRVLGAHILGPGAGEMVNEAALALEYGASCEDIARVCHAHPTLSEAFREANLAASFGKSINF
As to the kind of experiment: microscale thermophoresis. The class given is binding. As to conditions: unmodified bortezomib; His-tag RED-tris-NTA labelled protein; unit not given. Background: Microscale thermophoresis detects binding through changes in fluorescence in a small temperature gradient.

The target of the next test is T2, PSMB5 (Homo sapiens, UniProt P28074).
T2 construct: recombinant isolated subunit, customized by DetaiBio; His-tag labelling for MST implies His tag
T2 sequence (P28074 60-263): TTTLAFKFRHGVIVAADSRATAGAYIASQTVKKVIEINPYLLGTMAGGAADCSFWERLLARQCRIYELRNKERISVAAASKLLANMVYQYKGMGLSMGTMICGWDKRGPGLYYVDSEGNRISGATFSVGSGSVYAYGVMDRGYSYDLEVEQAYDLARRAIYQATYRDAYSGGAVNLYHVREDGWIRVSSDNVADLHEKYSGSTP
As to the kind of experiment: microscale thermophoresis. The class given is binding. As to conditions: unmodified bortezomib; positive control (protein of the control panel not named in the legend); isolated recombinant subunit.

Take `CC(C)C[C@H](NC(=O)[C@H](Cc1ccccc1)NC(=O)c1cnccn1)B(O)O` [bortezomib]: the KD in test [1] was 1.38 ± 0.51 E-7; at PSMB5 it was “binding affinity of BTZ to DLD and to PSMB5”.

These data come from article PMC11322525, “Dihydrolipoamide dehydrogenase (DLD) is a novel molecular target of bortezomib” (Cell Death & Disease, 2024).
